Results reported in patent US20260138978A1, “POSITIVE ALLOSTERIC MODULATORS OF THE MUSCARINIC ACETYLCHOLINE RECEPTOR M1” (Vanderbilt University, priority 2022, published 2026).

Tests used:
human mAChRM1 [1] = molecular target: T1, human mAChRM1 (Homo sapiens, UniProt P11229); experiment: mAChR M1 cell-based functional assay (calcium mobilization), positive allosteric modulator activity: increase in the EC20 acetylcholine response; conditions: for Emax: PAM mode; for EC50: increase in the EC20 acetylcholine response, read-out: PAM Activity Human M1 EC50
T1 construct: host or cells: CHO-K1
T1 sequence (P11229 1-460): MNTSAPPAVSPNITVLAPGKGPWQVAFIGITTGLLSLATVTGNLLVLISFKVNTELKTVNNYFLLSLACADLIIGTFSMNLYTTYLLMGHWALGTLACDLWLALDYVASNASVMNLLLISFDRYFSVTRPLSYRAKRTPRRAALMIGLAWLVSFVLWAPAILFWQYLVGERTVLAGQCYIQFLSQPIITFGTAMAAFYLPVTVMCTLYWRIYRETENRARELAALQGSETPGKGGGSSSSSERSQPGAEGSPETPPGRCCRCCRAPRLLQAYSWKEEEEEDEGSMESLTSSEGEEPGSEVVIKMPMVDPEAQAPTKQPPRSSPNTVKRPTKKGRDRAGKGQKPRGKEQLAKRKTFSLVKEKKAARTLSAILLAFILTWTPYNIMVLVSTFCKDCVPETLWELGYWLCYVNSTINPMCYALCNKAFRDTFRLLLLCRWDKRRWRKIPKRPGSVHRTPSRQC
Procedure, shortened: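 Potentiation is scored as the rise in an EC20 acetylcholine-evoked calcium signal across 11-point (1:3) compound series, fitted with a four-parameter logistic equation to give EC50 and Emax. Read-out is Fluo-4 fluorescence ratio in hM1-transfected CHO-K1 cells, measured kinetically on FDSS.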

human mAChRM1 [2] = molecular target: T1, human mAChRM1; experiment: mAChR M1 cell-based functional assay (calcium mobilization), agonist activity upon compound addition, Emax relative to acetylcholine maximum; conditions: for Agonist Activity Human M1 EC50 / EC50: calcium mobilization upon compound addition; for Emax: relative to the maximum for acetylcholine
Procedure, shortened: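 Emax is given as a percentage of the maximal acetylcholine response, from four-parameter curves of compound-evoked calcium mobilization. Human M1-transfected CHO-K1 cells carried Fluo-4 dye, and compound (11 concentrations, 1:3 steps) was applied at 4 s of a 300 s kinetic fluorescence recording.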

| Emax (human mAChRM1 [1]) [%] | EC50 (human mAChRM1 [1]) [µM] | Agonist Activity Human M1 EC50 (human mAChRM1 [2]) | EC50 (human mAChRM1 [2]) [µM] | Emax (human mAChRM1 [2]) [%] | SMILES |
| --- | --- | --- | --- | --- | --- |
| 58 | ≥ 10 | inactive |  |  | COc1cc(-c2ccc(C(C)(C)O)cc2)cc(F)c1CN1Cc2cccnc2C1=O [Compound 119, 6-((3-fluoro-4′-(2-hydroxypropan-2-yl)-5-methoxy-[1,1′-biphenyl]-4-yl)methyl)-5,6-dihydro-7H-pyrrolo[3,4-b]pyridin-7-one] |
| 66 | 3.7 | inactive |  |  | CC(C)(O)c1ccc(-c2cc(F)c(CN3Cc4cccnc4C3=O)c(Cl)c2)cc1 [Compound 120, 6-((3-chloro-5-fluoro-4′-(2-hydroxypropan-2-yl)-[1,1′-biphenyl]-4-yl)methyl)-5,6-dihydro-7H-pyrrolo[3,4-b]pyridin-7-one] |
| 88 | 0.201 |  | ≥ 10 | 22 | Cn1cc2c(-c3cc(F)c(CN4Cc5cccnc5C4=O)c(F)c3)ccc(C(C)(C)O)c2n1 [Compound 121, 6-(2,6-difluoro-4-(7-(2-hydroxypropan-2-yl)-2-methyl-2H-indazol-4-yl)benzyl)-5,6-dihydro-7H-pyrrolo[3,4-b]pyridin-7-one] |
| 86 | 0.231 |  | ≥ 10 | 20 | Cn1cc2c(-c3cc(F)c(CN4Cc5cccnc5C4=O)c(Cl)c3)ccc(C(C)(C)O)c2n1 [Compound 122, 6-(2-Chloro-6-fluoro-4-(7-(2-hydroxypropan-2-yl)-2-methyl-2H-indazol-4-yl)benzyl)-5,6-dihydro-7H-pyrrolo[3,4-b]pyridin-7-one] |
| 84 | 0.124 |  | ≥ 10 | 34 | Cc1cc(-c2ccc(C(C)(C)O)c3nn(C)cc23)cc(F)c1CN1Cc2cccnc2C1=O [Compound 123, 6-(2-fluoro-4-(7-(2-hydroxypropan-2-yl)-2-methyl-2H-indazol-4-yl)-6-methylbenzyl)-5,6-dihydro-7H-pyrrolo[3,4-b]pyridin-7-one] |
| 84 | 1.87 | inactive |  |  | Cn1cc2c(-c3cnc(CN4Cc5cccnc5C4=O)c(F)c3)ccc(C(C)(C)O)c2n1 [Compound 124, 6-((3-fluoro-5-(7-(2-hydroxypropan-2-yl)-2-methyl-2H-indazol-4-yl)pyridin-2-yl)methyl)-5,6-dihydro-7H-pyrrolo[3,4-b]pyridin-7-one] |
| 77 | ≥ 10 | inactive |  |  | CN(C)c1cc(-c2ccc(C(C)(C)O)c3nn(C)cc23)cc(F)c1CN1Cc2cccnc2C1=O [Compound 125, 6-(2-(dimethylamino)-6-fluoro-4-(7-(2-hydroxypropan-2-yl)-2-methyl-2H-indazol-4-yl)benzyl)-5,6-dihydro-7H-pyrrolo[3,4-b]pyridin-7-one] |
| 83 | 0.061 |  | 3.73 | 54 | COCCOc1cc(-c2ccc(C(C)(C)O)c3nn(C)cc23)cc(F)c1CN1Cc2cccnc2C1=O [Compound 126, 6-(2-fluoro-4-(7-(2-hydroxypropan-2-yl)-2-methyl-2H-indazol-4-yl)-6-(2-methoxyethoxy)benzyl)-5,6-dihydro-7H-pyrrolo[3,4-b]pyridin-7-one] |
| 81 | 4.53 | inactive |  |  | CC(C)(O)c1ccc(-c2ccc(CN3Cc4cccnc4C3=O)c(F)c2)cc1 [Compound 127, 6-((3-fluoro-4′-(2-hydroxypropan-2-yl)-[1,1′-biphenyl]-4-yl)methyl)-5,6-dihydro-7H-pyrrolo[3,4-b]pyridin-7-one] |
| 57 | 7.14 | inactive |  |  | CC(C)(O)c1ccc(-c2ccc(CN3Cc4cccnc4C3=O)cc2)cc1 [Compound 128, 6-((4′-(2-hydroxypropan-2-yl)-[1,1′-biphenyl]-4-yl)methyl)-5,6-dihydro-7H-pyrrolo[3,4-b]pyridin-7-one] |
| 65 | ≥ 10 | inactive |  |  | Cc1cc(-c2ccc(C(C)(C)O)cc2)ccc1CN1Cc2cccnc2C1=O [Compound 129, 6-((4′-(2-hydroxypropan-2-yl)-3-methyl-[1,1′-biphenyl]-4-yl)methyl)-5,6-dihydro-7H-pyrrolo[3,4-b]pyridin-7-one] |
| 88 | 0.251 |  | 7.49 | 12 | Cn1cc2c(-c3ccc(CN4Cc5cccnc5C4=O)c(F)c3)ccc(C(C)(C)O)c2n1 [Compound 130, 6-(2-fluoro-4-(7-(2-hydroxypropan-2-yl)-2-methyl-2H-indazol-4-yl)benzyl)-5,6-dihydro-7H-pyrrolo[3,4-b]pyridin-7-one] |
| 92 | 0.825 | inactive |  |  | Cn1cc2c(-c3ccc(CN4Cc5cccnc5C4=O)cc3)ccc(C(C)(C)O)c2n1 [Compound 131, 6-(4-(7-(2-hydroxypropan-2-yl)-2-methyl-2H-indazol-4-yl)benzyl)-5,6-dihydro-7H-pyrrolo[3,4-b]pyridin-7-one] |
| 87 | 0.499 |  | ≥ 10 | 14 | Cc1cc(-c2ccc(C(C)(C)O)c3nn(C)cc23)ccc1CN1Cc2cccnc2C1=O [Compound 132, 6-(4-(7-(2-hydroxypropan-2-yl)-2-methyl-2H-indazol-4-yl)-2-methylbenzyl)-5,6-dihydro-7H-pyrrolo[3,4-b]pyridin-7-one] |
| 79 | 0.061 |  | 4.42 | 72 | Cn1cc2c(-c3cc(F)c(CN4Cc5cccnc5C4=O)c(C4CC4)c3)ccc(C(C)(C)O)c2n1 [Compound 133, 6-(2-cyclopropyl-6-fluoro-4-(7-(2-hydroxypropan-2-yl)-2-methyl-2H-indazol-4-yl)benzyl)-5,6-dihydro-7H-pyrrolo[3,4-b]pyridin-7-one] |
| 76 | 1.31 |  | 9.05 | 60 | Cn1cc2c(-c3cc(Cl)c(CN4Cc5cccnc5C4=O)c(C4CC4)c3)ccc(C(C)(C)O)c2n1 [Compound 134, 6-(2-chloro-6-cyclopropyl-4-(7-(2-hydroxypropan-2-yl)-2-methyl-2H-indazol-4-yl)benzyl)-5,6-dihydro-7H-pyrrolo[3,4-b]pyridin-7-one] |
| 80 | 1.03 |  | ≥ 10 | 23 | Cn1cc2c(-c3cc(F)c(CN4Cc5cccnc5C4=O)c(N4CCC4)c3)ccc(C(C)(C)O)c2n1 [Compound 135, 6-(2-(azetidin-1-yl)-6-fluoro-4-(7-(2-hydroxypropan-2-yl)-2-methyl-2H-indazol-4-yl)benzyl)-5,6-dihydro-7H-pyrrolo[3,4-b]pyridin-7-one] |
| 86 | 0.648 |  | 9.68 | 21 | Cn1cc2c(-c3cc(F)c(CN4Cc5cccnc5C4=O)c(C4CCCC4)c3)ccc(C(C)(C)O)c2n1 [Compound 136, 6-(2-cyclopentyl-6-fluoro-4-(7-(2-hydroxypropan-2-yl)-2-methyl-2H-indazol-4-yl)benzyl)-5,6-dihydro-7H-pyrrolo[3,4-b]pyridin-7-one] |
| 60 | 5.04 | inactive |  |  | CC(C)(O)c1ccc(-c2cc(F)c(CN3Cc4nccnc4C3=O)c(F)c2)cc1 [Compound 137, 6-((3,5-difluoro-4′-(2-hydroxypropan-2-yl)-[1,1′-biphenyl]-4-yl)methyl)-6,7-dihydro-5H-pyrrolo[3,4-b]pyrazin-5-one] |
| 67 | 0.281 |  | ≥ 10 | 17 | Cn1cc2c(-c3cc(F)c(CN4Cc5nccnc5C4=O)c(F)c3)ccc(C(C)(C)O)c2n1 [Compound 138, 6-(2,6-Difluoro-4-(7-(2-hydroxypropan-2-yl)-2-methyl-2H-indazol-4-yl)benzyl)-6,7-dihydro-5H-pyrrolo[3,4-b]pyrazin-5-one] |
| 87 | 0.08 |  | 3.78 | 46 | Cn1cc2c(-c3cc(F)c(CN4Cc5ncncc5C4=O)c(F)c3)ccc(C(C)(C)O)c2n1 [Compound 139, 6-(2,6-difluoro-4-(7-(2-hydroxypropan-2-yl)-2-methyl-2H-indazol-4-yl)benzyl)-6,7-dihydro-5H-pyrrolo[3,4-d]pyrimidin-5-one] |
| 76 | 0.084 |  | 5.64 | 41 | Cn1cc2c(-c3cc(F)c(CN4Cc5ccncc5C4=O)c(F)c3)ccc(C(C)(C)O)c2n1 [Compound 140, 2-(2,6-difluoro-4-(7-(2-hydroxypropan-2-yl)-2-methyl-2H-indazol-4-yl)benzyl)-1,2-dihydro-3H-pyrrolo[3,4-c]pyridin-3-one] |
| 79 | 1.01 | inactive |  |  | CC(C)(O)c1ccc(-c2cc(F)c(CN3Cc4ccncc4C3=O)c(F)c2)cc1 [Compound 141, 2-((3,5-difluoro-4′-(2-hydroxypropan-2-yl)-[1,1′-biphenyl]-4-yl)methyl)-1,2-dihydro-3H-pyrrolo[3,4-c]pyridin-3-one] |
